# Counter-ions that a name gives are not always drawn. Like-named read-outs stand apart in the source and are kept apart here.
# How the values were obtained:
# L-type calcium channel = target: T1, L-type calcium channel (Rattus norvegicus, UniProt P22002); experiment: Competition binding of [3H]nitrendipine to membrane fragments of rat cardiac muscle
# T1 construct: membrane fragments of rat cardiac muscle; from tissue; host or cells: rat cardiac muscle membranes
# [1] = [3H]nitrendipine, rat cardiac muscle membranes, mean, read-out: PKi Ca (converted)
# [2] = [3H]nitrendipine, rat cardiac muscle membranes, SEM and n in lines below, read-out: pKi Ca (converted)
# [3] = [3H]nitrendipine, rat cardiac muscle membrane fragments, L-type calcium channel
# [4] = [3H]nitrendipine, rat cardiac muscle membrane fragments, L-type calcium channel, read-out: pKi Ca (converted)
# T1 sequence (P22002 whole entry, other chains not shown, the tested form may be a part): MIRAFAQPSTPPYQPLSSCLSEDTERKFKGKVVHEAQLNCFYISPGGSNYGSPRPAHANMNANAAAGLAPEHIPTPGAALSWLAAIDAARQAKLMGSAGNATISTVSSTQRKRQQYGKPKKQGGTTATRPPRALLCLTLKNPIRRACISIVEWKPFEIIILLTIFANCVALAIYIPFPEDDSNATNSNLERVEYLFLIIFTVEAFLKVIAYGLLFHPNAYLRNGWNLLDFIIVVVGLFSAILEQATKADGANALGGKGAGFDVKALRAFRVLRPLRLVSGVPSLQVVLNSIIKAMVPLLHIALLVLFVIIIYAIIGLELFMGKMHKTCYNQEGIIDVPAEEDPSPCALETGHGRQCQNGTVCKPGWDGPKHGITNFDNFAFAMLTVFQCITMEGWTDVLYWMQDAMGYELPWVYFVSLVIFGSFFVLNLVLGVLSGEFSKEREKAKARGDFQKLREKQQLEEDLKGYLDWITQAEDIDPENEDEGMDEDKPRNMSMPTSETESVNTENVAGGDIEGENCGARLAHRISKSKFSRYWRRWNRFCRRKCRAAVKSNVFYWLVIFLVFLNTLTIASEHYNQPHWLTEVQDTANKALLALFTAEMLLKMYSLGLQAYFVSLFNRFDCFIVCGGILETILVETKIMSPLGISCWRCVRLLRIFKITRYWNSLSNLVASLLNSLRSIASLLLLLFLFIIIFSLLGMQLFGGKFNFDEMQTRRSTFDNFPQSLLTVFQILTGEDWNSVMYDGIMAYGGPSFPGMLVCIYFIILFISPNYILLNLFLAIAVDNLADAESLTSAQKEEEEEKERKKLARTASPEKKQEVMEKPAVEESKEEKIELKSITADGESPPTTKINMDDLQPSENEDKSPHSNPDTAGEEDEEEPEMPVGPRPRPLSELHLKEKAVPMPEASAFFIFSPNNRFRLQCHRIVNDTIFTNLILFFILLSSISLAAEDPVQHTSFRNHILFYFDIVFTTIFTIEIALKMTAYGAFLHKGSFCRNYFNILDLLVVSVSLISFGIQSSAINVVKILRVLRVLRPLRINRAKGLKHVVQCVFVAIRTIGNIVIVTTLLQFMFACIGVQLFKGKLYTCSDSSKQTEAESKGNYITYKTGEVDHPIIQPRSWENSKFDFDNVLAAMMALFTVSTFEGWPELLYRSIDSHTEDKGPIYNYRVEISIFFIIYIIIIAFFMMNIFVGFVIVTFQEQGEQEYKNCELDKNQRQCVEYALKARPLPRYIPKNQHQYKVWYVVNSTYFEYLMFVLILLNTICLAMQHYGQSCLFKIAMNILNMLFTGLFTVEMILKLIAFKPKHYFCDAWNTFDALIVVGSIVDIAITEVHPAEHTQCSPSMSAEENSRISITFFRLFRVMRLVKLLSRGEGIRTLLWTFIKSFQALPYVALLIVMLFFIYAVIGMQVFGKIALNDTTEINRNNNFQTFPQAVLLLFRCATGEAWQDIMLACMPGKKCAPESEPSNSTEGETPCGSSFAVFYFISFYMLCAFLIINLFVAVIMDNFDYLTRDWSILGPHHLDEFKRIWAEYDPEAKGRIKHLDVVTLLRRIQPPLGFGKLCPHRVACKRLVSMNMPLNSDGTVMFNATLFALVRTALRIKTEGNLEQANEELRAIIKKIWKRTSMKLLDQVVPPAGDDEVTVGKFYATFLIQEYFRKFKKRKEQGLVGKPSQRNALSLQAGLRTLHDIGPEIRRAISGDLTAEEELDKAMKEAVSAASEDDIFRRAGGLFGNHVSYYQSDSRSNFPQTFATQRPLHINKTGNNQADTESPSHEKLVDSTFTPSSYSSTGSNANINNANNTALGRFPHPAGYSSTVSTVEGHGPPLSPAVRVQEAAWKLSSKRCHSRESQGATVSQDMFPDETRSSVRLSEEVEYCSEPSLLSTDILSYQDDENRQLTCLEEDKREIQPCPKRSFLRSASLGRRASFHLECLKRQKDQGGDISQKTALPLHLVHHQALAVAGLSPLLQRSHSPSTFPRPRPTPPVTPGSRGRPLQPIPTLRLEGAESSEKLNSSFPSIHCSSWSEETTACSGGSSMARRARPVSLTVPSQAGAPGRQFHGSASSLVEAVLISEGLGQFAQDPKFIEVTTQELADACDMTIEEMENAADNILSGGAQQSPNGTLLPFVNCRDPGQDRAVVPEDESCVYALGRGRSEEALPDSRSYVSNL
# T1 sequence (P54290 25-944 partner limits assumed, other chains not shown): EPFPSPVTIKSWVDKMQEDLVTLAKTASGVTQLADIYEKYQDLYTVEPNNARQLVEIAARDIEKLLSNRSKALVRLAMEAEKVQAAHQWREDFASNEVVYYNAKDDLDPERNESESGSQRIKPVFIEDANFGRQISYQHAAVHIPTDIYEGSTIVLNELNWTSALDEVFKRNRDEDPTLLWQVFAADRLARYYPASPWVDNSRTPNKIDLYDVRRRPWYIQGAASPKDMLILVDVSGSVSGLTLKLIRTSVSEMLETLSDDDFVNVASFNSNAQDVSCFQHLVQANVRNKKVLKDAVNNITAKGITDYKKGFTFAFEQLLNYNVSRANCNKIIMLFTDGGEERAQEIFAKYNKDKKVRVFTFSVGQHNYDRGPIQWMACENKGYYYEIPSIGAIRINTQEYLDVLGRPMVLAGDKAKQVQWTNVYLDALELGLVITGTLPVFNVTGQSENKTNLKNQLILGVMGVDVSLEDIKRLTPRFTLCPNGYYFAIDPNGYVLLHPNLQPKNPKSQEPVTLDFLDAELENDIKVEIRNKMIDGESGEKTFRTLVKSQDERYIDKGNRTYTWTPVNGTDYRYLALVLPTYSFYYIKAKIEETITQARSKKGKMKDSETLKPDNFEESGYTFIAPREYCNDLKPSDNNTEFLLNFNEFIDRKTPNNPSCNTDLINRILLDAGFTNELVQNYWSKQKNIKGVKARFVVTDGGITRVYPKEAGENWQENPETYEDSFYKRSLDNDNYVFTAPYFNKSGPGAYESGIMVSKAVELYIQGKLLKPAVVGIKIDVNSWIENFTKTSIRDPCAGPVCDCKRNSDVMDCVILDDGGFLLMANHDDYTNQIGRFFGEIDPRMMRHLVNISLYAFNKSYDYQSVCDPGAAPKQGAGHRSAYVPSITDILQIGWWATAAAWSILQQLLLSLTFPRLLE
# T1 sequence (P54290 945-1091 partner limits assumed, other chains not shown): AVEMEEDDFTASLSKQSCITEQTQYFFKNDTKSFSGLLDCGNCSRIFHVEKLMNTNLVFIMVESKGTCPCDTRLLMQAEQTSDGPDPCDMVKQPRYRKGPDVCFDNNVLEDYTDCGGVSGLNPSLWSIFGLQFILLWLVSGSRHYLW
smiles,measurement,setting,value
"CCNC(=O)C1=C(CC)NC(CC)=C(C(=O)NCCCN2CCC(C(=O)OCC)(c3ccccc3)CC2)C1c1ccc([N+](=O)[O-])cc1 (stereo not drawn) [Example 182, 2,6-Diethyl-1,4-dihydro-3-{N-[3-(4-ethoxycarbonyl-4-phenylpiperidin-1-yl)propyl]}carboxamido-5-(N-ethyl)carboxamido-4(4-nitrophenyl)pyridine]",Ki,L-type calcium channel; PKi Ca,355 µM
same,melting point,,103 to 104 °C
"CCC1=C(C(N)=O)C(c2ccc([N+](=O)[O-])cc2)C(C(=O)NCCCN2CCC(C(=O)OC)(c3ccccc3)CC2)=C(CCCCN)N1 (stereo not drawn) [Example 166, 2-(4-Aminobutyl)-5-carboxamido-6-ethyl-1,4-dihydro-3-{N-[3-(4-methoxycarbonyl-4-phenylpiperidin-1-yl)propyl]}carboxamido-4-(4-nitrophenyl)pyridine]",Ki,L-type calcium channel; [1],132 µM
same,melting point,,75 to 78 °C
CC1=C(C(N)=O)C(c2cccc([N+](=O)[O-])c2)C(C(=O)NCCCN2CCC(c3ccccc3)CC2)=C(C)N1 (stereo not drawn) [Example 62],Ki,L-type calcium channel; [2],19.5 µM
same,melting point,,92 to 96 °C
"CC1=C(C(=O)NCCCN2CCC(c3ccccc3)CC2)C(c2ccc([N+](=O)[O-])cc2)c2c([nH]c(=O)[nH]c2=O)N1 (stereo not drawn) [Example 63, 1,4-Dihydro-6-methyl-4-(4-nitrophenyl)-5-{N-[3-(4-phenylpiperidin-1-yl)propyl]}carboxamido-[2,3, d]uracilylpyridine]",Ki,L-type calcium channel; [2],66.1 µM
same,melting point,,202 to 205 °C
"CCOC(=O)C1=C(CNCCCN2CCC(c3ccccc3)(c3ccccc3)CC2)NC(C)=C(C(=O)OC)C1c1ccc([N+](=O)[O-])cc1.Cl.O (stereo not drawn) [Example 90, 3-Ethoxycarbonyl-1,4-dihydro-5-methoxycarbonyl-6-methyl-4-(4-nitro)phenyl-2-(N-(3-(4,4,-diphenylpiperidin-1-yl)propyl)amino)methylpyridine, hydrochloride hydrate]",pKi Ca,L-type calcium channel; [3],6.63
"CCC1=C(C(N)=O)C(c2ccc([N+](=O)[O-])cc2)C(C(=O)NC2CCN(CCc3c[nH]c4ccccc34)CC2)=CN1CC (stereo not drawn) [Example 122, 5-Carboxamido-1,4-dihydro-3-(N-{1-[2-(3-indolyl)ethyl]piperidin-4-yl}) carboxamido-1,6-diethyl-4-(4-nitrophenyl)pyridine]",pKi Ca,L-type calcium channel; [3],3
"COC(=O)C1=C(C)NC(C)=C(C(=O)NCCCN2CCc3cc(OC)c(OC)cc3C2)C1c1ccc([N+](=O)[O-])cc1 (stereo not drawn) [Example 57, 1,4-Dihydro-3-methoxycarbonyl-5-{N-[3-(1,2,3,4-tetrahydro-6,7-dimethoxyisoquinolin-2-yl)propyl]}carboxamido-2,6-dimethyl-4-(4-nitrophenyl)pyridine hydrochloride hydrate]",Ki,L-type calcium channel; [2],1000 µM
"CCC1=C(C(N)=O)C(c2ccc([N+](=O)[O-])cc2)C(C(=O)NC2CCN(CCc3c[nH]c4ccccc34)CC2)=CN1CC (stereo not drawn) [Example 123, 5-Carboxamido-1,6-diethyl-1,4-dihydro-3-(N-{1-[2-(3-indolyl)ethyl]piperidin-4-yl}) carboxamide-4-(4-nitrophenyl)pyridine]",pKi Ca,L-type calcium channel; [3],4.53
"COC(=O)C1=C(C)NC(C)=C(C(=O)NCCCCN2CCC(c3ccccc3)CC2)C1c1ccc([N+](=O)[O-])cc1 (stereo not drawn) [Example 3, 1,4-Dihydro-3-methoxycarbonyl-2,6-dimethyl-4-(4-nitrophenyl)-5-{N-[4-(4-phenylpiperidin-1-yl)butyl]}carbozamidopyridine hydrochloride hydrate]",Ki,L-type calcium channel; [2],1000 µM
"CC1=C(C(N)=O)C(c2ccc([N+](=O)[O-])cc2)C(C(=O)NCCCN2CCC(C(=O)OCCC#N)(c3ccccc3)CC2)=CN1C (stereo not drawn) [Example 209, 5-Carboxamido-3-{N-[3-(4-(2-cyanoethoxycarbonyl)-4-phenylpiperidin-1-yl)propyl]}carboxamido-1,4-dihydro-1,6-dimethyl-4-(4-nitrophenyl) pyridine]",PKi Ca,"L-type calcium channel; [3H]nitrendipine, rat cardiac muscle membranes, mean",4.53
"COC(=O)C1=C(C)NC(C)=C(C(=O)OCCCN2CCCCC2)C1c1ccc([N+](=O)[O-])cc1 (stereo not drawn) [Example 50, 1,4-Dihydro-5-methoxycarbonyl-2,6-dimethyl-4-(4-nitrophenyl)-3-[3-(piperidin-1-yl)propoxy]carbonylpyridine hydrochloride etherate]",Ki,L-type calcium channel; [2],9.55 µM
"CCC1=C(C(=O)NCCCN2CCC(c3ccccc3)CC2)C(c2ccc([N+](=O)[O-])cc2)C(C(=O)OC)=C(C)N1 (stereo not drawn) [Example 74, 2-Ethyl-1,4-dihydro-5-methoxycarbonyl-6-methyl-4-(4-nitro)phenyl-3-(N-(3-(4-phenylpiperidin-1-yl)propyl)) carboxamidopyridine hydrochloride hydrate]",Ki,L-type calcium channel; [2],5.25 µM
COc1ccccc1N1CCN(CCCNC(=O)C2=C(C)NC(C)=C(C(N)=O)C2c2ccc([N+](=O)[O-])cc2)CC1 (stereo not drawn) [Example 124],Ki,L-type calcium channel; [4],1000 µM
"COC(=O)C1=C(C)NC(C)=C(C(=O)OCCCN2CCC(c3ccccc3)CC2)C1c1ccc([N+](=O)[O-])cc1 (stereo not drawn) [Example 48, 1,4-Dihydro-5-methazycarbonyl-2,6-dimethyl-4-(4-nitrophenyl)-3-[3-(4-phenylpiperidin-1-yl)propoxy]}carbonylpyridine hydrochloride hydrate]",Ki,L-type calcium channel; [2],0.479 µM
"COC(=O)C1=C(C)NC(C)=C(C(=O)NCCCN2CCCCC2)C1c1ccc([N+](=O)[O-])cc1 (stereo not drawn) [Example 51, 1,4-Dihydro-3-methoxycarbonyl-2,6-dimethyl-4-(4-nitrophenyl)-5-{N-[3-(piperidin-1-yl)propyl]}carboxamidopyridine hydrochloride etherate]",Ki,L-type calcium channel; [2],1000 µM
"COC(=O)C1=C(C)NC(C)=C(C(=O)NCCCCN2CCC(c3ccccc3)(c3ccccc3)CC2)C1c1ccc([N+](=O)[O-])cc1.Cl.O (stereo not drawn) [Example 53, 1,4-Dihydro-3-methoxycarbonyl-2,6-dimethyl-4-(4-nitrophenyl)-5-{N-[4-(4,4-diphenylpiperidin-1-yl)butyl]}carboxamidopyridine hydrochloride hydrate]",pKi Ca,"L-type calcium channel; [3H]nitrendipine, rat cardiac muscle membranes, SEM and n in lines below",5.54
"CCC1=C(C(N)=O)C(c2ccc([N+](=O)[O-])cc2)C(C(=O)NCCCN2CCC(C(=O)OC)(c3ccccc3)CC2)=C(COCCN)N1 (stereo not drawn) [Example 234, 2-((2-Aminoethyl)oxy)methyl-5-carboxamido-6-ethyl-1,4-dihydro-3-(N-(3-(4-methoxycarbonyl-4-phenylpiperidin-1-yl)propyl)) carboxamido-4-(4-nitro)phenylpyridine]",Ki,L-type calcium channel; [1],398 µM
"CCC1=C(C(N)=O)C(c2ccc([N+](=O)[O-])cc2)C(C(=O)NCCCN2CCC(O)(c3ccccc3)CC2)=CN1CC.Cl.O (stereo not drawn) [Example 101, 5-Carboxamido-1,6-diethyl-1,4-dihydro-3-{N-[3-(4-hydroxy-4-phenylpiperidin-1-yl)propyl]}carboxamido-4-(4-nitrophenyl)pyridine hydrochloride hydrate]",pKi Ca,L-type calcium channel; [3],3
"CCC1=C(C(N)=O)C(c2ccc([N+](=O)[O-])cc2)C(C(=O)NCCCN2CCN(c3ccccc3)CC2)=C(CC)N1 (stereo not drawn) [Example 104, 5-Carboxamido-2,6-diethyl-1,4-dihydro-4-(4-nitrophenyl)-3-{N-[3-(4-phenylpiperazin-1-yl)propyl]}carboxamido-pyridine hydrochloride hydrate]",Ki,L-type calcium channel; [4],1000 µM
"COC(=O)C1=C(C)NC(c2ccoc2)=C(C(=O)NCCCN2CCC(c3ccccc3)CC2)C1c1ccc([N+](=O)[O-])cc1 (stereo not drawn) [Example 65, 2-(Furan-3-yl)-1,4-dihydro-5-methoxycarbonyl-6-methyl-4-(4-nitrophenyl)-5-{N-[3-(4-phenylpiperidin-1-yl)propyl]}carboxamidopyridine hydrochloride hydrate]",Ki,L-type calcium channel; [2],3.09 µM

# Source: patent US6608086B2, “Dihydropyridines and new uses thereof” (Synaptic Pharmaceutical Corporation, priority 1993, dated 2003)
